The values that follow come from patent US8476298B2 (Exelixis, Inc., priority 2003, dated 2013).

A value given as a limit tells only on which side of the number the result lay.

Test [1] deals with T1, Flt-3 (baculovirus expressed human Flt-3 kinase domain R571-S993) (Homo sapiens, UniProt P36888).
T1 construct: human Flt-3 kinase domain R571-S993; host or cells: baculovirus expression
T1 sequence (P36888 571-993): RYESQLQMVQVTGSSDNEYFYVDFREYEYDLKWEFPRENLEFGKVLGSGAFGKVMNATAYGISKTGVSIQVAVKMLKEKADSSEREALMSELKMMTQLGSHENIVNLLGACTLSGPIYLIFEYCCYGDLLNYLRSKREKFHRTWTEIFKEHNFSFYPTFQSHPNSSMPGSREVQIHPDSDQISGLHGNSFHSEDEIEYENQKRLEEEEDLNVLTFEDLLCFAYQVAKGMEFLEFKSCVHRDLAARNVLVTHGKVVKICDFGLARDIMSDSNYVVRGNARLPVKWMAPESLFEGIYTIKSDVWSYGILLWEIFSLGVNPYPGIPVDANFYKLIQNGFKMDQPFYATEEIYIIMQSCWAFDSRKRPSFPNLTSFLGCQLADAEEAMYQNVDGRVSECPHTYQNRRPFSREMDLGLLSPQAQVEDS
The test can be described thus: biochemical. Particulars: Table 4, inhibition as IC50 class; read-out: flt3 IC50.

Test [2] deals with T2, Flt-4 (baculovirus expressed human Flt-4 kinase domain D725-R1298) (Homo sapiens, UniProt P35916).
T2 construct: human Flt-4 kinase domain D725-R1298; host or cells: baculovirus expression
As to the kind of experiment: flt-4 Alphascreen Tyrosine Kinase assay.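 Further: AlphaScreen chemiluminescence read-out of biotinylated poly(Glu,Tyr) 4:1 phosphorylation via streptavidin donor and PY100 anti-phosphotyrosine acceptor beads, ATP near KM, 1 hr kinase reaction, 10-point dose-response.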 It counts as biochemical. Particulars: Table 4, inhibition as IC50 class; read-out: flt4 IC50. In general terms: Bead proximity is the source of the signal in Alpha formats.

The next test has as its target c-Kit kinase (Homo sapiens, UniProt P10721). The test can be described thus: c-Kit AlphaScreen kinase assay.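 Further: c-Kit kinase phosphorylating biotinylated poly(Glu,Tyr), ATP near its KM, 1 h reaction at ambient temperature, AlphaScreen chemiluminescence with streptavidin donor and anti-phosphotyrosine acceptor beads, 10-point inhibitor titration.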 The format is biochemical. The settings on record: Table 4, inhibition as IC50 class.
Test [3] concerns the target T3, KDR (baculovirus expressed human KDR kinase domain D807-V1356) (Homo sapiens, UniProt P35968).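 Further: Luciferase-coupled chemiluminescent kinase assay, activity read as percent ATP left after 4 h reaction at ambient temperature, ATP near KM, 10-point dose-response in 384-well plates.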
T3 construct: human KDR kinase domain D807-V1356; host or cells: baculovirus expression
As to the kind of experiment: biochemical. The settings on record: Table 4, inhibition as IC50 class.
Protocol: Kinase activity and compound inhibition are investigated using one or more of the three assay formats described below. The ATP concentrations for each assay are selected to be close to the Michaelis-Menten constant (KM) for each individual kinase. Dose-response experiments are performed at 10 different inhibitor concentrations in a 384-well plate format.
KDR biochemical activity was assessed using a Luciferase-Coupled Chemiluminescent Kinase assay (LCCA) format. Kinase activity was measured as the percent ATP remaining following the kinase reaction. Remaining ATP was detected by luciferase-luciferin-coupled chemiluminescence. […] The mixture is incubated at ambient temperature for 4 hours after which 20 uL luciferase-luciferin mix is added and the chemiluminescent signal read using a Wallac Victor^2 reader.

Test [4] has as its target T4, c-Met (baculovirus expressed human c-Met kinase domain P948-S1343) (Homo sapiens, UniProt P08581).
T4 construct: human c-Met kinase domain P948-S1343; host or cells: baculovirus expression
As to the kind of experiment: c-Met Luciferase-Coupled Chemiluminescent Kinase assay (LCCA).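 Further: kinase activity read as percent ATP left after reaction, by luciferase-luciferin chemiluminescence, with 1 µM ATP and 1 µM poly-EY substrate, 2 h at ambient temperature, 10-point dose-response.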 It counts as biochemical. Particulars: Table 4, inhibition as IC50 class.
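Wherever flt3 IC50 is given: Luciferase-coupled chemiluminescent kinase assay, activity read as percent ATP left after a 3 h reaction at room temperature, ATP near KM, 10-point dose-response.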

T2 sequence (P35916 725-1298 isoform P35916-1): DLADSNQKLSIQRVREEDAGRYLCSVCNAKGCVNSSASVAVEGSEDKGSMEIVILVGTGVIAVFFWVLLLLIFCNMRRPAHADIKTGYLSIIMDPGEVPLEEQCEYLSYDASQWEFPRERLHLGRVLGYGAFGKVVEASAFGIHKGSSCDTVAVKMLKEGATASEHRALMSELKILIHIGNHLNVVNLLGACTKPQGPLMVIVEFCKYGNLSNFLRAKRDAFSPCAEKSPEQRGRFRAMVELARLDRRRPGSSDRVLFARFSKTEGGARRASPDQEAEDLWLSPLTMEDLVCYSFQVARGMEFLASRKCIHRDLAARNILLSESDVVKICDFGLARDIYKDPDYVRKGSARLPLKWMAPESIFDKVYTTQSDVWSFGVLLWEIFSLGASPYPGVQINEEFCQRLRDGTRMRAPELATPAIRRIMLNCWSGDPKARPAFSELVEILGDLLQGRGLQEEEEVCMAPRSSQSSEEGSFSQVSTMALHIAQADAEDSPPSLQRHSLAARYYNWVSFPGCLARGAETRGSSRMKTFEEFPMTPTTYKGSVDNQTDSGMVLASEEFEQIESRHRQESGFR
T4 sequence (P08581 1011-1343 limits assumed): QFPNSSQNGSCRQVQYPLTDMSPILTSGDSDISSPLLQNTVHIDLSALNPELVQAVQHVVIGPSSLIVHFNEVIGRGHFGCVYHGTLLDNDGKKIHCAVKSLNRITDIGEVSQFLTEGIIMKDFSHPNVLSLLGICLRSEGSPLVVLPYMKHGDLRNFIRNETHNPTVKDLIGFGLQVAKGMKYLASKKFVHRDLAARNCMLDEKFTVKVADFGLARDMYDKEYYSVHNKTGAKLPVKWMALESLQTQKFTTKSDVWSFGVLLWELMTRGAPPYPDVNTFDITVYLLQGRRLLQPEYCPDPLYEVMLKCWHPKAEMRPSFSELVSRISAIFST
c-Kit kinase, sequence (P10721 26-976): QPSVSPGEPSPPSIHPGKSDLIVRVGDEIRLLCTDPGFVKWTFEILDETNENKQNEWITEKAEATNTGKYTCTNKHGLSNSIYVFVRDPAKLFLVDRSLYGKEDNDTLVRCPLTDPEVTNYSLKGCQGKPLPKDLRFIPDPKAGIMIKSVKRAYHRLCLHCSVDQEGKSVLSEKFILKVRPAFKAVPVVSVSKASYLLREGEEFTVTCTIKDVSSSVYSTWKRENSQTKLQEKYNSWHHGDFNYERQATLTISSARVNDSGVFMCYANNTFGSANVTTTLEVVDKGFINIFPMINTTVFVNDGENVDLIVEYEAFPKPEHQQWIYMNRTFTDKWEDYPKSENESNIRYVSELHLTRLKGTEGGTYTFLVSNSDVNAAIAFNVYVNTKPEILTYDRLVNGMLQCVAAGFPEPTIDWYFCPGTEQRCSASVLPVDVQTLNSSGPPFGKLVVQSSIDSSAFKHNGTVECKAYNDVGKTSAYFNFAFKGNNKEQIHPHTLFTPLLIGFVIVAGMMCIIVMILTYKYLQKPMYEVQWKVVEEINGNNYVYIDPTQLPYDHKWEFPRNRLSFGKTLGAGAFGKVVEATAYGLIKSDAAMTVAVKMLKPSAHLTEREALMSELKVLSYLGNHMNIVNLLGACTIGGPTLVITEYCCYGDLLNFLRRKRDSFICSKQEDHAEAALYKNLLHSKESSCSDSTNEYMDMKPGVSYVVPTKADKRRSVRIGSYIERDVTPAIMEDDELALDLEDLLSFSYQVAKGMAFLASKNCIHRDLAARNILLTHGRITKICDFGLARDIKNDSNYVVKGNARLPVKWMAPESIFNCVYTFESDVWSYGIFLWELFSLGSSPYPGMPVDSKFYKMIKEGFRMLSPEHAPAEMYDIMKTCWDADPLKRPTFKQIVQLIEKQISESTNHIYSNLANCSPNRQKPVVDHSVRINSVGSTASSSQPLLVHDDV
T3 sequence (P35968 807-1356): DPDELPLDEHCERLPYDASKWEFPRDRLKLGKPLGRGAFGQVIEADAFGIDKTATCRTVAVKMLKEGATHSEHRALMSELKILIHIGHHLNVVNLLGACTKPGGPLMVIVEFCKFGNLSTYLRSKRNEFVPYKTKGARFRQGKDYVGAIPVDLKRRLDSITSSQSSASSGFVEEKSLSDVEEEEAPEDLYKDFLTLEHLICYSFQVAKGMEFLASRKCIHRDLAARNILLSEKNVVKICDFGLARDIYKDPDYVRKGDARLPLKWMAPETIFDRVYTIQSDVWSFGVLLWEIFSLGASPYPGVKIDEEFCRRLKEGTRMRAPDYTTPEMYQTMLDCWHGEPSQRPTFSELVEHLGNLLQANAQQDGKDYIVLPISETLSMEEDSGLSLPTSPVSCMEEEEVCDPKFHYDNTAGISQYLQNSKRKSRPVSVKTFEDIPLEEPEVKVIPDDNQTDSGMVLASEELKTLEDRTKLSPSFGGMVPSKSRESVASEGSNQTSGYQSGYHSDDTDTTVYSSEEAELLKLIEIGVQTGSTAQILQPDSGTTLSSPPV

With `COc1cc2c(Oc3ccc(NC(=O)C(=O)NCCc4ccc(F)cc4)cc3F)ccnc2cc1OCC1CCN(C)CC1` [Example 258, N-{3-fluoro-4-[(6-(methyloxy)-7-{[(1-methylpiperidin-4-yl)methyl]oxy}quinolin-4-yl)oxy]phenyl}-N′-[2-(4-fluorophenyl)ethyl]ethanediamide], the IC50 (in test [1]; in test [2]; against c-Kit kinase; in test [3]; in test [4]) was less than 50 nM throughout.

In the case of `COc1cc2c(Oc3ccc(NC(=O)C(=O)Nc4ccccc4)cc3F)ccnc2cc1OCC1CCN(C)CC1` [Example 259, N-{3-fluoro-4-[(6-(methyloxy)-7-{[(1-methylpiperidin-4-yl)methyl]oxy}quinolin-4-yl)oxy]phenyl}-N′-phenylethanediamide], the IC50 is 500 to 5000 nM in test [1]; 50 to 500 nM in test [2]; 500 to 5000 nM against c-Kit kinase; 50 to 500 nM in test [3]; less than 50 nM in test [4].

Regarding `COc1cc2c(Oc3ccc(NC(=O)C(=O)Nc4cccc(F)c4)cc3F)ccnc2cc1OCC1CCNCC1` [Example 260, N-[3-fluoro-4-({6-(methyloxy)-7-[(piperidin-4-ylmethyl)oxy]quinolin-4-yl}oxy)phenyl]-N′-(3-fluorophenyl)ethanediamide], the IC50 in test [1] was 500 to 5000 nM; in test [2], 500 to 5000 nM; against c-Kit kinase it was 50 to 500 nM; in test [3] it was 500 to 5000 nM; in test [4] it was less than 50 nM.

In the case of `COc1cc2c(Oc3ccc(NC(=O)C(=O)Nc4ccc(F)c(Cl)c4)cc3F)ccnc2cc1OCC1CCNCC1` [Example 261, N-(3-chloro-4-fluorophenyl)-N′-[3-fluoro-4-({6-(methyloxy)-7-[(piperidin-4-ylmethyl)oxy]quinolin-4-yl}oxy)phenyl]ethanediamide], the IC50 in test [1] is 50 to 500 nM; in test [2] it was 50 to 500 nM; against c-Kit kinase it was 500 to 5000 nM; in test [3], 500 to 5000 nM; in test [4], less than 50 nM.

Consider `COc1ccc(NC(=O)C(=O)Nc2ccc(Oc3ccnc4cc(OCC5CCNCC5)c(OC)cc34)c(F)c2)cc1OC` [Example 262, N-[3,4-bis(methyloxy)phenyl]-N′-[3-fluoro-4-({6-(methyloxy)-7-[(piperidin-4-ylmethyl)oxy]quinolin-4-yl}oxy)phenyl]ethanediamide], for which the IC50 in test [1] was 50 to 500 nM; in test [2] it was 50 to 500 nM; against c-Kit kinase, 500 to 5000 nM; in test [3] it was 500 to 5000 nM; in test [4], less than 50 nM.

Regarding `COc1cc2c(Oc3ccc(NC(=O)C(=O)NCCC(C)C)cc3F)ccnc2cc1OCC1CCNCC1` [Example 263, N-[3-fluoro-4-({6-(methyloxy)-7-[(piperidin-4-ylmethyl)oxy]quinolin-4-yl}oxy)phenyl]-N′-(3-methylbutyl)ethanediamide], the IC50 in test [1] is 50 to 500 nM; in test [2] it was 50 to 500 nM; against c-Kit kinase, less than 50 nM; in test [3], 50 to 500 nM; in test [4], less than 50 nM.

In the case of `COc1cc2c(Oc3ccc(NC(=O)C(=O)NCCC(C)(C)C)cc3F)ccnc2cc1OCC1CCNCC1` [Example 264, N-(3,3-dimethylbutyl)-N′-[3-fluoro-4-({6-(methyloxy)-7-[(piperidin-4-ylmethyl)oxy]quinolin-4-yl}oxy)phenyl]ethanediamide], the IC50 is less than 50 nM in test [1]; 50 to 500 nM in test [2]; less than 50 nM at c-Kit kinase; less than 50 nM in test [3]; less than 50 nM in test [4].

Regarding `COc1cc2c(Oc3ncc(NC(=O)CC(=O)Nc4ccc(F)cc4)cc3Cl)ccnc2cc1OCCCN1CCCCC1` [Example 265, N-[5-chloro-6-({6-(methyloxy)-7-[(3-piperidin-1-ylpropyl)oxy]quinolin-4-yl}oxy)pyridin-3-yl]-N′-(4-fluorophenyl)propanediamide], the IC50 in test [1] is less than 50 nM; in test [2] it was 50 to 500 nM; on c-Kit kinase, 50 to 500 nM; in test [3] it was 50 to 500 nM; in test [4], less than 50 nM.

As to `COc1cc2c(Oc3ncc(NC(=O)CC(=O)Nc4ccc(F)cc4)cc3Cl)ccnc2cc1OCCCN1CCOCC1` [Example 266, N-[5-chloro-6-({6-(methyloxy)-7-[(3-morpholin-4-ylpropyl)oxy]quinolin-4-yl}oxy)pyridin-3-yl]-N′-(4-fluorophenyl)propanediamide], the concentration for half-maximal inhibition (IC50) in test [1] was less than 50 nM; in test [2], 50 to 500 nM; against c-Kit kinase, 50 to 500 nM; in test [3], 50 to 500 nM; in test [4], less than 50 nM.

For the compound `CCN(CC)CCCOc1cc2nccc(Oc3ncc(NC(=O)CC(=O)Nc4ccc(F)cc4)cc3Cl)c2cc1OC` [Example 267, N-(5-chloro-6-{[7-{[3-(diethylamino)propyl]oxy}-6-(methyloxy)quinolin-4-yl]oxy}pyridin-3-yl)-N′-(4-fluorophenyl)propanediamide], the IC50 in test [1] is less than 50 nM; in test [2], 50 to 500 nM; at c-Kit kinase it was 50 to 500 nM; in test [3], 50 to 500 nM; in test [4], less than 50 nM.

As to `CCCCc1ccc(CNC(=O)C(=O)Nc2ccc(Oc3ccnc4cc(OCC5CCNCC5)c(OC)cc34)c(F)c2)cc1` [Example 270, N-[(4-butylphenyl)methyl]-N′-[3-fluoro-4-({6-(methyloxy)-7-[(piperidin-4-ylmethyl)oxy]quinolin-4-yl}oxy)phenyl]ethanediamide], the IC50 in test [1] was 50 to 500 nM; in test [2], 50 to 500 nM; on c-Kit kinase, 50 to 500 nM; in test [3], 50 to 500 nM; in test [4], less than 50 nM.

`COc1cc2c(Oc3ccc(NC(=O)C(=O)NCCc4ccc(C)cc4)cc3F)ccnc2cc1OCC1CCNCC1` [Example 271, N-[3-fluoro-4-({6-(methyloxy)-7-[(piperidin-4-ylmethyl)oxy]quinolin-4-yl}oxy)phenyl]-N′-[2-(4-methylphenyl)ethyl]ethanediamide]: the IC50 in test [1] was less than 50 nM; in test [2], 50 to 500 nM; at c-Kit kinase, 50 to 500 nM; in test [3] it was 50 to 500 nM; in test [4], less than 50 nM.

Regarding `COc1cc2c(Oc3ccc(NC(=O)C(=O)NCc4ccccn4)cc3F)ccnc2cc1OCC1CCNCC1` [Example 274, N-[3-fluoro-4-({6-(methyloxy)-7-[(piperidin-4-ylmethyl)oxy]quinolin-4-yl}oxy)phenyl]-N′-(pyridin-2-ylmethyl)ethanediamide], the IC50 in test [1] is 50 to 500 nM; in test [2], 50 to 500 nM; against c-Kit kinase it was 50 to 500 nM; in test [3], 50 to 500 nM; in test [4], less than 50 nM.

Turning to `COc1cc2c(Oc3ccc(NC(=O)C(=O)NCCc4ccccc4)cc3F)ncnc2cc1OCC1CCNCC1` [Example 275, N-[3-fluoro-4-({6-(methyloxy)-7-[(piperidin-4-ylmethyl)oxy]quinazolin-4-yl}oxy)phenyl]-N′-(2-phenylethyl)ethanediamide], the IC50 (in test [1]; in test [2]; against c-Kit kinase; in test [3]; in test [4]) was less than 50 nM throughout.

For `COc1cc2c(Oc3ccc(NC(=O)C(=O)NCCc4ccccc4)cc3F)ncnc2cc1OCC1CCN(C)CC1` [Example 276, N-{3-fluoro-4-[(6-(methyloxy)-7-{[(1-methylpiperidin-4-yl)methyl]oxy}quinazolin-4-yl)oxy]phenyl}-N′-(2-phenylethyl)ethanediamide], the IC50 (in test [1]; in test [2]; against c-Kit kinase; in test [3]; in test [4]) was less than 50 nM each time.

Consider `COc1cc2c(Oc3ccc(NC(=O)C(=O)NCc4cccc(C(F)(F)F)c4F)cc3F)ccnc2cc1OCC1CCNCC1` [Example 277, N-[3-fluoro-4-({6-(methyloxy)-7-[(piperidin-4-ylmethyl)oxy]quinolin-4-yl}oxy)phenyl]-N′-{[2-fluoro-3-(trifluoromethyl)phenyl]methyl}ethanediamide], for which the IC50 (in test [1]; in test [2]; against c-Kit kinase; in test [3]; in test [4]) was less than 50 nM throughout.

As to `COc1ccc(CCN(C)C(=O)C(=O)Nc2ccc(Oc3ccnc4cc(OCC5CCNCC5)c(OC)cc34)c(F)c2)cc1OC` [Example 279, N-{2-[3,4-bis(methyloxy)phenyl]ethyl}-N′-[3-fluoro-4-({6-(methyloxy)-7-[(piperidin-4-ylmethyl)oxy]quinolin-4-yl}oxy)phenyl]-N-methylethanediamide], the IC50 in test [1] is less than 50 nM; in test [2], 50 to 500 nM; at c-Kit kinase it was 50 to 500 nM; in test [3] it was 50 to 500 nM; in test [4], 50 to 500 nM.

By IC50 is commonly meant the concentration that gives 50% inhibition.
